Measured values reported in patent US8933099B2, “Monocyclic pyridine derivative” (Eisai R&D Management Co., Ltd., priority 2013, dated 2015).

Key:
[1] = test system: human lung cancer cell line NCI-H1581 xenograft; assay: Antitumor effect in NCI-H1581 subcutaneous xenograft model in mice; format: in vivo; settings: oral, once a day for 11 days, tumor volume last day
Experimental: Human lung cancer cell line NCI-H1581, which had been cultured in RPMI-1640 medium containing 10% FBS, and penicillin and streptomycin, were adjusted to a concentration of 1×10^8 cells/mL with Hanks' Balanced Salt Solution(GIBCO #24020) to prepare a cell suspension, and the suspension was mixed with […] in a ratio of 1:1 to prepare a cell suspension in a concentration of 5×10^7 cells/mL. The cell suspension was inoculated in a volume of 100 μL into a subcutaneous part of a right flank of each of nude mice, 6 to 7 weeks of ages (BALB/cAJcl-nu/nu, female, Clea Japan Inc.). Ten to 11 days after the cell inoculation, the shortest diameter and the longest diameter of a tumor in each mouse were measured by using an electronic digital caliper (Digimatic™ caliper, Mitutoyo Corporation), so as to calculate the volume of the tumor in accordance with the following calculation formula: Tumor volume(mm^3)=Longest diameter(mm)×Shortest diameter(mm)×Shortest diameter(mm)/2
(§1) On the basis of the volumes of tumors obtained on the first day of administration, the nude mice were grouped such that averages of the tumor volumes were substantially equal among the groups. Each test substance was dissolved in DMSO, Tween 80 was added thereto to prepare a solution in a 10-fold concentration and the thus prepared solution was stored at the freezer before use. Immediately before the administration, the stock solution was diluted with a 5% glucose solution to obtain a final administration solution (in which a ratio in % among DMSO, Tween 80 and the 5% glucose solution was 3.5:6.5:90). Each evaluation sample was orally administered to test substance administration group at a volume of 0.4 mL per 20 g of body weight once a day continuously for 11 days, and in a control group, an administration solvent was orally administered under the same conditions. Incidentally, the experiment was conducted on groups each consisting of 5 mice.
(§2) With respect to each of the control group and test substance administration group, a ratio of the weight measured on the final day to the weight measured on the first day (relative body weight: RBW) was calculated. If a ratio of the RBW of the test substance administration group/the RBW of the control group is 0.9 or more, the corresponding test substance administration group was defined as a well-tolerated. In the test substance administration group thus defined as well-tolerated, a ratio of the tumor volume of the test substance-dosing group to the tumor volume of the control group obtained on the last day (TIC) (%) was calculated, and shown in Table 22.

[2] = test system: human endometrial cancer cell line AN3CA xenograft; assay: Antitumor effect in AN3CA subcutaneous xenograft model in mice; format: in vivo; settings: oral, once a day for 14 days, tumor volume last day
From the text: Human endometrial cancer cell line AN3CA (ATCC Number HTB-111), which had been cultured in an RPM-1640 medium containing 10% FBS, and penicillin and streptomycin, were adjusted to a concentration of 1×10^8 cells/mL with Hanks' Balanced Salt Solution (GIBCO #24020) to prepare a cell suspension, and the suspension was mixed with […] (BD Biosciences, Cat#354234) in a ratio of 1:1 to prepare a cell suspension in a concentration of 5×10^7 cells/ml. The cell suspension was inoculated in a volume of […] into a subcutaneous part of a right flank of nude mice, 7 weeks of age (BALB/cAJcl-nu/nu, female, Clea Japan Inc.). Eleven days after cell inoculation, the shortest diameter and the longest diameter of a tumor in each mouse were measured by using an electronic digital caliper (Digimatic™ caliper, Mitutoyo Corporation), so as to calculate the volume of the tumor in accordance with the following calculation formula: Tumor volume(mm^3)=Longest diameter(mm)×Shortest diameter(mm)×Shortest diameter(mm)/2
as §1, with “14” for “11”
as §2, with “(T/C)” for “(TIC)”, “26.” for “22.”

## CNC(=O)n1ccc2cc(Oc3ccnc(NC(=O)c4ccc(C5CCN(CCO)CC5)cc4)c3)c(OCCOC)cc21 [Example 22, 5-((2-(4-(1-(2-Hydroxyethyl)piperidin-4-yl)benzamide)pyridin-4-yl)oxy)-6-(2-methoxyethoxy)-N-methyl-1H-indole-1-carboxamide]
[1]; 6.25 mg/kg
  T/C (%): 46%
[1]; 12.5 mg/kg
  T/C (%): 21%
[1]; 25 mg/kg
  T/C (%): 13%
[1]; 50 mg/kg
  T/C (%): 8%
[2]; 6.25 mg/kg
  T/C (%): 29%
[2]; 12.5 mg/kg
  T/C (%): 11%
[2]; 25 mg/kg
  T/C (%): 4%
[2]; 50 mg/kg
  T/C (%): 2%
